Data taken from patent US9115092B2, “Substituted quinazoline and pyrido-pyrimidine derivatives” (Asana Biosciences, LLC, priority 2010, dated 2015).

How the values were obtained:
mTOR kinase = biological target: T1, mTOR kinase (Homo sapiens, UniProt P42345); test: mTOR kinase TR-FRET assay; type: biochemical; conditions: read-out: mTO R
T1 construct: purchased Millipore, USA
Method in brief: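 TR-FRET read-out (340 nm excitation, 615/665 nm emission) of Thr389 phosphorylation of a ULight-labeled p70 S6K peptide (50 nM) by mTOR, 20 μM ATP, 60 min room temperature after 60 min compound preincubation. Buffer HEPES pH 7.5 with MnCl2, EGTA; IC50 by sigmoidal dose-response.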

[1] = test system: pS6RP(S235/236), PC3 cells; test: In-cell Western assay, pS6RP(S235/236) in PC3 cells; type: cell-based, human; conditions: Homo sapiens, PC-3, In-cell Western
Method in brief: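 Overnight-seeded PC3 cells were treated 2 h with serially diluted compound, then fixed and immunostained with phospho-specific primary antibodies and Eu-labelled secondary. Time-resolved Eu signal read at 615 nm (ex 340 nm), normalised by Hoechst 33258 staining (ex 355/em 460 nm); IC50 from sigmoidal dose-response fit.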

[2] = test system: pAKT(T308) (phosphorylated at threonine 308), PC3 cells; test: In-cell Western assay, pAKT(T308) in PC3 cells; type: cell-based; conditions: Homo sapiens, PC-3, In-cell Western
Method: (§1) Cells from human prostate cancer cell line PC3 (American Type Culture Collection (ATCC), Manassas, Va. 20108 USA) were seeded at an optimal density of 22,000 cell/well in 96-well plates containing Ham's F12K medium (90 μL) and incubated overnight. The compound dilutions were carried out in 100% DMSO followed by a dilution in the medium. Test compounds were added in serial dilutions to the wells and incubated for 2 h. The cells were washed and fixed with 4% paraformaldehyde. After incubation at room temperature for 1 h in the dark, blocking was done for 2 h at room temperature. Primary antibodies for phosphorylated (p) AKT(5473) (phosphorylated at serine 473), pAKT(T308) (phosphorylated at threonine 308) and for pS6RP(S235/236) (phosphorylated at serine 235/236) (commercially available from Cell Signaling Technology®, whose protocol was followed for the in-cell western assay, were diluted to the required concentration and added to the corresponding wells followed by overnight incubation at 4° C. Eu-labeled rabbit (PE) (Perkin-Elmer USA catalog #AD0106) secondary antibody was added and incubated for 2 h at room temperature. Delfia® enhancement solution (cat #1244-105, Perkin Elmer USA) was subsequently added to the plate before taking the reading at 615 nm with excitation wavelength of 340 nm, after which 0.5 μg/mL of Hoechst® 33258 dye (Catalog #86140-5, Sigma) was added to the plate and fluorescence emission was read at 460 nm with 355 nm excitation, to evaluate the correction factor. IC50 values were calculated using a sigmoidal dose-response curve fit in GraphPad Prism® v5 software.

[3] = test system: pAKT(5473) (phosphorylated at serine 473), PC3 cells; test: In-cell Western assay, pAKT(5473) in PC3 cells; type: cell-based; conditions: Homo sapiens, PC-3, In-cell Western, read-out: pAkt-S473
Method: as §1

PC3 cells = test: XTT assay for cell viability, PC3 cells; type: cell-based, human; conditions: Homo sapiens, PC-3, cell viability
Method in brief: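 PC3 cells seeded at 1000 cells/well, grown 24 h, then exposed to serial dilutions of compound for 96 h. Viability read by XTT dye at 37° C, absorbance 465 nm. EC50 from sigmoidal dose-response fit.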

[4] = biological target: T2, PI3Kα (wild-type), P110/P85α (Homo sapiens, UniProt P42336); test: PI3 Kinase TR-FRET assay, PI3Kα (wild-type); type: biochemical
T2 construct: made in house; host or cells: SF9 insect cells
Method in brief: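 TR-FRET read-out of PIP3 formation via biotin-PIP3 displacement (665/615 nm ratio) gave IC50 curves. Enzyme: 5 ng wild-type P110/P85α from Sf9 cells, 60 min RT with compound and PIP2 (MgCl2 40 mM, DTT 5 mM), then 30 min RT kinase reaction at 10 μM ATP and 10 μM PIP2.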

T2 sequence (P42336 whole entry): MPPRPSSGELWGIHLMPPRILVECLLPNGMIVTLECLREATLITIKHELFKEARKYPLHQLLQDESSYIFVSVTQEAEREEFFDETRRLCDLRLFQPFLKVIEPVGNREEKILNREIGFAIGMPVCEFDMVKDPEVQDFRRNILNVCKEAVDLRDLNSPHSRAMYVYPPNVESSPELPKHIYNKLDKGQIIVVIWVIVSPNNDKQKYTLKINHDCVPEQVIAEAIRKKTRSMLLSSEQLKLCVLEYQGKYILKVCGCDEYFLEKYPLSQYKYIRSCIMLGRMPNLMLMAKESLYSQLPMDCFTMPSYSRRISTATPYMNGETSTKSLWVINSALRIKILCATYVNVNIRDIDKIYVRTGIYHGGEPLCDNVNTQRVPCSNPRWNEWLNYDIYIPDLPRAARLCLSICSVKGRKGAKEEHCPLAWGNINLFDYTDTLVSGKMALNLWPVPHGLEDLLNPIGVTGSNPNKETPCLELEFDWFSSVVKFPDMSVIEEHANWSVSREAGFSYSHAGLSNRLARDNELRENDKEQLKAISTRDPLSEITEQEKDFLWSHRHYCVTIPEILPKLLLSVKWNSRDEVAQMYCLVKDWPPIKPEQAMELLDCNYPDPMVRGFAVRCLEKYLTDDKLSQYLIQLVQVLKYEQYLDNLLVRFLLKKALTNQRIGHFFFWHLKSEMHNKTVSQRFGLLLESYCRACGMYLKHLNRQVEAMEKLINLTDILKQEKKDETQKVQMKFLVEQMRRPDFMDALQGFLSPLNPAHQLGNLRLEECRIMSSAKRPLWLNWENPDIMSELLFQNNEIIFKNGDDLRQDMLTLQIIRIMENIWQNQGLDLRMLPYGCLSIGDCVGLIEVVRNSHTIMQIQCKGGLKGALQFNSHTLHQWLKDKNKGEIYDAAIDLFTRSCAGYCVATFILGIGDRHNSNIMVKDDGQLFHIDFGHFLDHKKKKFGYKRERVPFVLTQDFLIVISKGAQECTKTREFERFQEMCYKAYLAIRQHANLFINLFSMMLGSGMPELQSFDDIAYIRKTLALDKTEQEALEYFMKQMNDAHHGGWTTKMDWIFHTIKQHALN
T2 sequence (P27986 whole entry partner): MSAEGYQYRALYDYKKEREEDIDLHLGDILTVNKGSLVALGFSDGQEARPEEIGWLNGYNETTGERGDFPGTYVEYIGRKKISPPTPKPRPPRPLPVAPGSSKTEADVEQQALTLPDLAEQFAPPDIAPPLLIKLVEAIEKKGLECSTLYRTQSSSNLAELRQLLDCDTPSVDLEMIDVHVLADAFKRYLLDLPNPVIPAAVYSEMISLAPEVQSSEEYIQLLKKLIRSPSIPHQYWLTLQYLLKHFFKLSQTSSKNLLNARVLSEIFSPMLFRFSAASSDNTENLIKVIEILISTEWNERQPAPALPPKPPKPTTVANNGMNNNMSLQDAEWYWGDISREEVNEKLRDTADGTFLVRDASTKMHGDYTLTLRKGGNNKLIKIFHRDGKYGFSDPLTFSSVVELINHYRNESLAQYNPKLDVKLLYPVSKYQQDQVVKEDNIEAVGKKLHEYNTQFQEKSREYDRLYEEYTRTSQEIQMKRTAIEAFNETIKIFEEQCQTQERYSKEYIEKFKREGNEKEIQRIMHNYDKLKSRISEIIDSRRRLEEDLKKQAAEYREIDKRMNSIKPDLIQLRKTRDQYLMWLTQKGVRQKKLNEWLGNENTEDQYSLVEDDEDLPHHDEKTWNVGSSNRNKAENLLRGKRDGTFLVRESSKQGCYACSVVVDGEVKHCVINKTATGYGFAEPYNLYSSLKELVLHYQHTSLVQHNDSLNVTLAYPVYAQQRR

Structure (SMILES)	IC50 (mTOR kinase) [µM]	IC50 [1] [µM]	IC50 [2] [µM]	IC50 [3] [µM]	IC50 (PC3 cells) [µM]	IC50 [4] [µM]
CN(C)C(=O)c1ccc(NC(=O)Nc2ccc(-c3nc(N4CCOCC4)c4ccc(-c5cccc(S(C)(=O)=O)c5)cc4n3)cc2)cc1 [Example 19, 4-(3-{4-[7-(3-methanesulfonyl-phenyl)-4-morpholin-4-yl-quinazolin-2-yl]-phenyl}-ureido)-N,N-dimethyl-benzamide]	< 0.05	< 0.1	0.1 to 0.5	0.1 to 0.5	< 0.1	< 0.05
CN(C)C(=O)c1ccc(NC(=O)Nc2ccc(-c3nc(N4CCOCC4)c4ccc(-c5cnn(C)c5)cc4n3)cc2)cc1 [Example 22, N,N-dimethyl-4-(3-{4-[7-(1-methyl-1H-pyrazol-4-yl)-4-morpholin-4-yl-quinazolin-2-yl]-phenyl}-ureido)-benzamide]	< 0.05	< 0.1	0.1 to 0.5	0.1 to 0.5	< 0.1	< 0.05
CN1CCN(C(=O)c2ccc(NC(=O)Nc3ccc(-c4nc(N5CCOCC5)c5ccc(-c6cccnc6)cc5n4)cc3)cc2)CC1 [Example 33, 1-[4-(4-methyl-piperazine-1-carbonyl)-phenyl]-3-[4-(4-morpholin-4-yl-7-pyridin-3-yl-quinazolin-2-yl)-phenyl]-urea]	< 0.05	< 0.1	0.1 to 0.5	0.1 to 0.5	< 0.1	< 0.05
CN(C)C(=O)c1ccc(NC(=O)Nc2ccc(-c3nc(N4CCOCC4)c4cc(F)c(-c5cnn(C)c5)cc4n3)cc2)cc1 [Example 35, 4-(3-{4-[6-Fluoro-7-(1-methyl-1H-pyrazol-4-yl)-4-morpholin-4-yl-quinazolin-2-yl]-phenyl}-ureido)-N,N-dimethyl-benzamide]	< 0.05	< 0.1	0.1 to 0.5	0.1 to 0.5	< 0.1	< 0.05
CN(C)C(=O)c1ccc(NC(=O)Nc2ccc(-c3nc(N4CCOCC4)c4ncc(-c5cnn(C)c5)cc4n3)cc2)cc1 [Example 42, N,N-dimethyl-4-(3-{4-[7-(1-methyl-1H-pyrazol-4-yl)-4-morpholin-4-yl-pyrido[3,2-d]pyrimidin-2-yl]-phenyl}-ureido)-benzamide]	< 0.05	0.1 to 0.5	0.1 to 0.5	< 0.1	< 0.1	< 0.05
CN(C)C(=O)c1ccc(NC(=O)Nc2ccc(-c3nc(N4CCOCC4)c4ncc(-c5cccnc5)cc4n3)cc2)cc1 [Example 46, N,N-dimethyl-4-{3-[4-(4-morpholin-4-yl-7-pyridin-3-yl-pyrido[3,2-d]pyrimidin-2-yl)-phenyl]-ureido}-benzamide]	< 0.05	< 0.1	0.1 to 0.5	< 0.1	< 0.1	< 0.05
CC(=O)Nc1cccc(-c2ccc3c(N4CCOCC4)nc(-c4ccc(NC(=O)Nc5ccc(C(=O)N(C)C)cc5)cc4)nc3c2)c1 [Example 49, 4-(3-{4-[7-(3-acetylamino-phenyl)-4-morpholin-4-yl-quinazolin-2-yl]-phenyl}-ureido)-N,N-dimethyl-benzamide]	< 0.05	< 0.1	0.1 to 0.5	0.1 to 0.5	< 0.1	< 0.05
CN(C)C(=O)c1ccc(NC(=O)Nc2ccc(-c3nc(N4CCOCC4)c4ccc(-c5cccc(S(C)(=O)=O)c5)cc4n3)cc2F)cc1 [Example 118, 4-(3-(2-fluoro-4-(7-(3-(methylsulfonyl)phenyl)-4-morpholino-quinazolin-2-yl)phenyl)ureido)-N,N-dimethyl-benzamide]	< 0.05	0.201 to 10	–	0.501 to 5	0.201 to 10	< 0.05
CN(C)C(=O)c1ccc(NC(=O)Nc2ccc(-c3nc(N4CCOCC4)c4ccc(-c5ccco5)cc4n3)cn2)cc1 [Example 159, 4-(3-(5-(7-(furan-2-yl)-4-morpholino-quinazolin-2-yl)pyridin-2-yl)ureido)-N,N-dimethyl-benzamide]	0.201 to 10	–	–	< 0.1	< 0.1	< 0.05
CN(C)C(=O)c1ccc(NC(=O)Nc2ccc(-c3nc(N4CCOCC4)c4ccc(-c5ccccn5)cc4n3)cc2)cc1F [Example 267, 2-fluoro-N,N-dimethyl-4-(3-(4-(4-morpholino-7-(pyridin-2-yl)quinazolin-2-yl)phenyl)ureido)-benzamide]	< 0.05	–	–	0.501 to 5	0.201 to 10	< 0.05
CC(=O)Nc1ccc(NC(=O)Nc2ccc(-c3nc(N4CCOCC4)c4ccc(-c5cncnc5)cc4n3)cc2)cc1 [Example 291, N-(4-(3-(4-(4-morpholino-7-(pyrimidin-5-yl)quinazolin-2-yl)phenyl)ureido)phenyl)-acetamide]	< 0.05	0.1 to 0.5	0.501 to 5	–	0.1 to 0.5	< 0.05

More lines, now with the values ahead:

IC50 (mTOR kinase) [µM]	IC50 [1] [µM]	IC50 [2] [µM]	IC50 [3] [µM]	IC50 (PC3 cells) [µM]	IC50 [4] [µM]	Structure (SMILES)
< 0.05	0.1 to 0.5	0.1 to 0.5	0.1 to 0.5	0.1 to 0.5	< 0.05	CNC(=O)c1ccc(NC(=O)Nc2ccc(-c3nc(N4CCOCC4)c4ccc(-c5cccc(S(C)(=O)=O)c5)cc4n3)cc2)cc1 [Example 20, 4-(3-{4-[7-(3-methanesulfonyl-phenyl)-4-morpholin-4-yl-quinazolin-2-yl]-phenyl}-ureido)-N-methyl-benzamide]
< 0.05	< 0.1	0.1 to 0.5	0.1 to 0.5	< 0.1	< 0.05	CN(C)C(=O)c1ccc(NC(=O)Nc2ccc(-c3nc(N4CCOCC4)c4ccc(-c5cccnc5)cc4n3)cc2)cc1 [Example 24, N,N-dimethyl-4-{3-[4-(4-morpholin-4-yl-7-pyridin-3-yl-quinazolin-2-yl)-phenyl]-ureido}-benzamide]
< 0.05	< 0.1	< 0.1	< 0.1	< 0.1	< 0.05	CN(C)CCN(C)C(=O)c1ccc(NC(=O)Nc2ccc(-c3nc(N4CCOCC4)c4ccc(-c5cncnc5)cc4n3)cc2)cc1 [Example 44, N-(2-dimethylamino-ethyl)-N-methyl-4-{3-[4-(4-morpholin-4-yl-7-pyrimidin-5-yl-quinazolin-2-yl)-phenyl]-ureido}-benzamide]
< 0.05	–	–	< 0.1	0.201 to 10	< 0.05	CN(C)C(=O)c1ccc(NC(=O)Nc2ccc(-c3nc(N4CCOCC4)c4ccc(-c5ccccn5)cc4n3)cc2)cc1 [Example 155, N,N-dimethyl-4-(3-(4-(4-morpholino-7-(pyridin-2-yl)quinazolin-2-yl)phenyl)ureido)-benzamide]
0.05 to 0.2	–	–	0.501 to 5	< 0.1	< 0.05	CN(C)C(=O)c1ccc(NC(=O)Nc2ccc(-c3nc(N4CCOCC4)c4ccc(-c5ccco5)cc4n3)cc2)c(F)c1 [Example 160, 3-fluoro-4-(3-(4-(7-(furan-2-yl)-4-morpholino-quinazolin-2-yl)phenyl)ureido)-N,N-dimethyl-benzamide]
< 0.05	–	–	0.501 to 5	0.201 to 10	< 0.05	CN(C)C(=O)c1ccc(NC(=O)Nc2ccc(-c3nc(N4CCOCC4)c4ccc(-c5ccccn5)cc4n3)c(F)c2)cc1 [Example 268, 4-(3-(3-fluoro-4-(4-morpholino-7-(pyridin-2-yl)quinazolin-2-yl)phenyl)ureido)-N,N-dimethyl-benzamide]
